In patent US20050142130A1, “Use of angiotensin-(1-7) for preventing and/or reducing the formation of neointima” (priority 2001, published 2005):
Entries after “also recorded” stand apart in the source; their conditions may differ.

Columns and labels:
thoracic aortic rings = test: Organ bath studies with isolated thoracic aortic rings (endothelial function) from stented, treated rats; format: in vivo, Wistar rats
Experimental: Twenty-eight male Wistar rats (Harlan, Horst, Netherlands) weighing 450 to 520 grams were anesthetized with O2, N2O and isofluorane (Abbot B.V., Hoofddorp, Netherlands). A pre-mounted 2.5×9 mm BeStentTM 2 (Medtronic-Bakken Research, Maastricht, the Netherlands) was implanted in the abdominal aorta as previously described, or a sham operation was performed.^35 Subsequently, an osmotic minipump with a pumping rate of 0.25 μl/hour, lasting for 28 days (Model 2004, Alzet, Charles River Nederland, Maastricht, Netherlands), was implanted subcutaneously for drug delivery via a catheter in the jugular vein. […] rats received angiotensin-(1-7) (Bachem, Weil am Rhein, Germany) (24 μg/kg/hour) (n=7) or saline (0.25 μl/hour) (n=10). Sham-operated rats received saline infusion (n=6). […] At this concentration, Ang-(1-7) binds to the Mas receptor and has subsequent functional effects. Five rats died peri-operatively due to rupture of the aorta. After 28 days, the animals were anesthetized and heparinized with 500 IU intravenously (Leo Pharma B.V., Breda, Netherlands). The abdominal aortas were subsequently harvested, fixed, embedded in methylmetacrylate, sectioned and stained for histological analysis. […] The endothelium-dependant vasodilatation was assessed by a cumulative dose of meatcholine (10 nM to 10 mM). […] Data are expressed as mean value±standard error of the mean (SEM). […]

in vivo = conditions: male, Wistar, rat, iv, 24 ug/kg/hour
Experimental: Twenty-eight male Wistar rats (Harlan, Horst, Netherlands) weighing 450 to 520 grams were anesthetized with O2, N2O and isofluorane (Abbot B.V., Hoofddorp, Netherlands). A pre-mounted 2.5×9 mm BeStent™ 2 (Medtronic-Bakken Research, Maastricht, the Netherlands) was implanted in the abdominal aorta as previously described, or a sham operation was performed.^35 Subsequently, an osmotic minipump with a pumping rate of 0.25 μl/hour, lasting for 28 days (Model 2004, Alzet, Charles River Nederland, Maastricht, Netherlands), was implanted subcutaneously for drug delivery via a catheter in the jugular vein. Stented rats received angiotensin-(1-7) (Bachem, Weil am Rhein, Germany) (24 μg/kg/hour) (n=7) or saline (0.25 μl/hour) (n=10). Sham-operated rats received saline infusion (n=6). […] At this concentration, Ang-(1-7) binds to the Mas receptor and has subsequent functional effects. Five rats died peri-operatively due to rupture of the aorta.

[1] = tested on: stented rat abdominal aorta (neointimal formation); test: Rat abdominal aorta stenting model, histomorphometry and histology after 28 days; format: in vivo, Wistar rats
Experimental: Twenty-eight male Wistar rats (Harlan, Horst, Netherlands) weighing 450 to 520 grams were anesthetized with O2, N2O and isofluorane (Abbot B.V., Hoofddorp, Netherlands). A pre-mounted 2.5×9 mm BeStentTM 2 (Medtronic-Bakken Research, Maastricht, the Netherlands) was implanted in the abdominal aorta as previously described, or a sham operation was performed.^35 Subsequently, an osmotic minipump with a pumping rate of 0.25 μl/hour, lasting for 28 days (Model 2004, Alzet, Charles River Nederland, Maastricht, Netherlands), was implanted subcutaneously for drug delivery via a catheter in the jugular vein. […] rats received angiotensin-(1-7) (Bachem, Weil am Rhein, Germany) (24 μg/kg/hour) (n=7) or saline (0.25 μl/hour) (n=10). Sham-operated rats received saline infusion (n=6). […] At this concentration, Ang-(1-7) binds to the Mas receptor and has subsequent functional effects. Five rats died peri-operatively due to rupture of the aorta. After 28 days, the animals were anesthetized and heparinized with 500 IU intravenously (Leo Pharma B.V., Breda, Netherlands). The abdominal aortas were subsequently harvested, fixed, embedded in methylmetacrylate, sectioned and stained for histological analysis. The endothelial function was tested in isolated thoracic aortic rings. Histomorphometrical analysis was performed on elastica van Gieson-stained sections by measurements of the proximal, middle and distal parts of each stent. To assess neointimal formation, areas within the external elastic lamina (EEL), internal elastic lamina (IEL) and lumen were measured by using digital morphometry. The neointimal area, media area, lumen area and the percentage of stenosis were calculated. The injury and inflammation scores were assessed as described by Schwartz et al. and Kornowski et al. Briefly, each strut was assigned a nominal score from 0 to 3 dependent upon the severity of the injury or inflammation. The average score is calculated by dividing the sum of scores by the number of struts. Total cell density and polymorphonuclear leukocyte density were determined in hematoxylin-eosin stained sections at ×400 magnification and expressed as ×100/mm^2. To assess a single measurement for each stent, the mean values of the proximal, middle and distal parts were calculated. Data are expressed as mean value±standard error of the mean (SEM). Statistical analysis between groups was performed by a student's t-test. Differences in dose-response curves between groups were tested by ANOVA for repeated measures using Greenhouse-Geisser correction for asphericity. Values of p=0.05 were considered statistically significant. For statistical analysis, SPSS software (Chicago, USA) was used.

[2] = stented rats, 24 μg/kg/hour, mean ± SEM

Q: With CC[C@H](C)[C@H](NC(=O)[C@H](Cc1ccc(O)cc1)NC(=O)[C@@H](NC(=O)[C@H](CCCNC(=N)N)NC(=O)[C@@H](N)CC(=O)O)C(C)C)C(=O)N[C@@H](Cc1c[nH]cn1)C(=O)N1CCC[C@H]1C(=O)O [Ang-(1-7), angiotensin-(1-7)] as the compound, how does the “Relaxation on endothelium-independent vasodilator sodium nitrite” value (thoracic aortic rings; sodium nitrite 10 mM, phenylephrine precontracted rings, vs sham and control) read?
A: equal; also recorded: No differences

Q: What about the Contraction on phenylephrine (thoracic aortic rings; thoracic aortic rings, phenylephrine 1 mM, mean ± SEM) of the same compound?
A: 254±29 μm

Q: What about the level at time molar (in vivo) of the same compound?
A: ~0.918 nM

Q: And the “Neointimal Area” value [1, 2]?
A: 0.51 ± 0.05 mm^2

Q: What about the “Neointimal Thickness” value [1, 2] of the same compound?
A: 112 ± 8 μm

Q: What about the “Percentage Stenosis” value [1, 2] of the same compound?
A: 10.4 ± 1.0%

Q: What about the “IEL Area, change with treatment” value ([1]; vs saline control) of the same compound?
A: −2%

Q: And the “Mean Injury Score, change with treatment” value ([1]; vs saline control)?
A: 18.2%

Q: And the “Media Area, change with treatment” value ([1]; vs saline control)?
A: −12.8%

Q: And the “Neointimal Area, change with treatment” value ([1]; vs saline control)?
A: −27.1%

Q: What about the “Neointimal Thickness, change with treatment” value ([1]; vs saline control) of the same compound?
A: −20.6%

Q: What about the “Percentage Stenosis, change with treatment” value ([1]; vs saline control) of the same compound?
A: −25.7%

Q: And the “Decrease in neointimal area” value ([1]; vs saline-treated stented rats)?
A: 27%

Q: What about the “Decrease in neointimal thickness” value ([1]; vs saline-treated stented rats) of the same compound?
A: 21%

Q: And the “Decrease in percentage stenosis” value ([1]; vs saline-treated stented rats)?
A: 26%
